# In patent US20250333406A1, “SULFONYL CYCLIC DERIVATIVES, AND COMPOSITIONS AND METHODS THEREOF” (Lysoway Therapeutics, Inc., priority 2023, published 2025):
# System: TFEB
# Experiment: TFEB Nuclear Translocation Assay
# Type: cell-based
# Details: read-out: EC50 of TFEB activation
row,EC50 [nM],Structure (SMILES)
1,≤ 1000,"CC(F)(F)c1ccc(S(=O)(=O)n2nc(N3CCN(c4ncc(F)cc4F)CC34CC4)c3c(Cl)cccc32)cc1 [Compound 123, 4-chloro-1-((4-(1,1-difluoroethyl)phenyl)sulfonyl)-3-(7-(3,5-difluoropyridin-2-yl)-4,7-diazaspiro[2.5]octan-4-yl)-1H-indazole]"
2,≤ 1000,"CC(F)(F)c1ccc(S(=O)(=O)n2nc(N3CCN(c4ccc(Cl)cc4F)CC34CC4)c3c(Cl)cccc32)cc1 [Compound 124, 4-chloro-3-(7-(4-chloro-2-fluorophenyl)-4,7-diazaspiro[2.5]octan-4-yl)-1-((4-(1,1-difluoroethyl)phenyl)sulfonyl)-1H-indazole]"
3,≤ 1000,"CC(F)(F)c1ccc(S(=O)(=O)n2nc(N3CCN(c4ccc(F)cc4Cl)CC34CC4)c3c(Cl)cccc32)cc1 [Compound 125, 4-chloro-3-(7-(2-chloro-4-fluorophenyl)-4,7-diazaspiro [2.5]octan-4-yl)-1-((4-(1,1-difluoroethyl)phenyl)sulfonyl)-1H-indazole]"
4,≤ 1000,"CC(F)(F)c1ccc(S(=O)(=O)n2nc(N3CCN(c4ccc(F)cc4F)CC34CC4)c3c(Cl)cccc32)cc1 [Compound 126, 4-chloro-1-((4-(1,1-difluoroethyl)phenyl)sulfonyl)-3-(7-(2,4-difluorophenyl)-4,7-diazaspiro[2.5]octan-4-yl)-1H-indazole]"
5,≤ 1000,"CC(F)(F)c1ccc(S(=O)(=O)n2nc(N3CCN(C(C)(C)CF)CC34CC4)c3c(Cl)cccc32)cc1 [Compound 128, 4-chloro-1-((4-(1,1-difluoroethyl)phenyl)sulfonyl)-3-(7-(1-fluoro-2-methylpropan-2-yl)-4,7-diazaspiro [2.5]octan-4-yl)-1H-indazole]"
6,≤ 1000,"CC(F)(F)c1ccc(S(=O)(=O)n2nc(N3CCN(C(C)(CF)CF)CC34CC4)c3c(Cl)cccc32)cc1 [Compound 130, 4-chloro-1-[4-(1,1-difluoroethyl)phenyl]sulfonyl-3-[7-[2-fluoro-1-(fluoromethyl)-1-methyl-ethyl]-4,7-diazaspiro [2.5]octan-4-yl]indazole]"
7,≤ 1000,"CC(F)(F)c1ccc(S(=O)(=O)n2nc(N3CCN(c4ncc(F)cn4)CC34CC4)c3c(F)cccc32)cc1 [Compound 133, 1-[4-(1,1-difluoroethyl)phenyl]sulfonyl-4-fluoro-3-[7-(5-fluoropyrimidin-2-yl)-4,7-diazaspiro [2.5]octan-4-yl]indazole]"
8,≥ 10000,"CC(F)(F)c1ccc(S(=O)(=O)n2nc(N3CCN(c4ncc(F)cn4)CC34CC4)c3c(O)cccc32)cc1 [Compound 134, 1-[4-(1,1-difluoroethyl)phenyl]sulfonyl-3-[7-(5-fluoropyrimidin-2-yl)-4,7-diazaspiro [2.5]octan-4-yl]indazol-4-ol]"
9,≤ 1000,"CC(F)(F)c1ccc(S(=O)(=O)n2nc(N3CCN(c4ncc(F)cn4)CC34CC4)c3c(Cl)cccc32)cn1 [Compound 135, 4-chloro-1-[[6-(1,1-difluoroethyl)-3-pyridyl]sulfonyl]-3-[7-(5-fluoropyrimidin-2-yl)-4,7-diazaspiro [2.5]octan-4-yl]indazole]"
10,≥ 10000,"CC(F)(F)c1cnc(-n2nc(N3CCN(c4ncc(F)cn4)CC34CC4)c3c(Cl)cccc32)nc1 [Compound 136, 4-chloro-1-[5-(1,1-difluoroethyl)pyrimidin-2-yl]-3-[7-(5-fluoropyrimidin-2-yl)-4,7-diazaspiro [2.5]octan-4-yl]indazole]"
11,≤ 1000,"CC(F)(F)c1ncc(S(=O)(=O)n2nc(N3CCN(c4ncc(F)cn4)CC34CC4)c3c(Cl)cccc32)cn1 [Compound 137, 4-chloro-1-[2-(1,1-difluoroethyl)pyrimidin-5-yl]sulfonyl-3-[7-(5-fluoropyrimidin-2-yl)-4,7-diazaspiro [2.5]octan-4-yl]indazole]"
12,≤ 1000,"CC1COCC(C)N1c1nn(S(=O)(=O)c2ccn(S(=O)(=O)C(C)C)c2)c2cccc(Cl)c12 (centres unmarked) [Compound 138, 4-[4-chloro-1-(1-isopropylsulfonylpyrrol-3-yl)sulfonyl-indazol-3-yl]-3,5-dimethyl-morpholine]"
13,≤ 1000,"CC(C)S(=O)(=O)n1ccc(S(=O)(=O)n2nc(N3CCCC4(CC4)C3)c3c(Cl)cccc32)c1 [Compound 139, 3-(5-azaspiro [2.5]octan-5-yl)-4-chloro-1-(1-isopropylsulfonylpyrrol-3-yl) sulfonyl-indazole]"
14,≤ 1000,"CC(C)S(=O)(=O)n1ccc(S(=O)(=O)n2nc(N3CCN(c4ncc(Cl)cc4F)CC34CC4)c3c(Cl)cccc32)c1 [Compound 140, 4-chloro-3-[7-(5-chloro-3-fluoro-2-pyridyl)-4,7-diazaspiro [2.5]octan-4-yl]-1-(1-isopropylsulfonylpyrrol-3-yl) sulfonyl-indazole]"
15,≤ 1000,"CC(C)S(=O)(=O)n1ccc(S(=O)(=O)n2nc(N3CCN(c4ncc(F)cc4F)CC34CC4)c3c(Cl)cccc32)c1 [Compound 141, 4-chloro-3-[7-(3,5-difluoro-2-pyridyl)-4,7-diazaspiro [2.5]octan-4-yl]-1-(1-isopropylsulfonylpyrrol-3-yl) sulfonyl-indazole]"
16,≤ 1000,"CC(C)S(=O)(=O)n1ccc(S(=O)(=O)n2nc(N3CCN(c4ncc(F)cc4F)CC34CC4)c3c(Cl)ccc(F)c32)c1 [Compound 142, 4-chloro-3-[7-(3,5-difluoro-2-pyridyl)-4,7-diazaspiro [2.5]octan-4-yl]-7-fluoro-1-(1-isopropylsulfonylpyrrol-3-yl) sulfonyl-indazole]"
17,≤ 1000,"O=S(=O)(c1ccn(S(=O)(=O)C2CC2)c1)n1nc(N2CCN(c3ncc(F)cc3F)CC23CC3)c2c(Cl)ccc(F)c21 [Compound 143, 4-chloro-1-((1-(cyclopropylsulfonyl)-1H-pyrrol-3-yl)sulfonyl)-3-(7-(3,5-difluoropyridin-2-yl)-4,7-diazaspiro [2.5]octan-4-yl)-7-fluoro-1H-indazole]"
18,≤ 1000,"CC(C)S(=O)(=O)n1ccc(S(=O)(=O)n2nc(N3CCN(c4ncc(F)cc4F)CC34CC4)c3c(F)ccc(F)c32)c1 [Compound 144, 3-[7-(3,5-difluoro-2-pyridyl)-4,7-diazaspiro [2.5]octan-4-yl]-4,7-difluoro-1-(1-isopropylsulfonylpyrrol-3-yl) sulfonyl-indazole]"
19,≤ 1000,"O=S(=O)(c1ccn(S(=O)(=O)C2CC2)c1)n1nc(N2CCN(c3ncc(F)cc3F)CC23CC3)c2c(F)ccc(F)c21 [Compound 145, 1-(1-cyclopropylsulfonylpyrrol-3-yl) sulfonyl-3-[7-(3,5-difluoro-2-pyridyl)-4,7-diazaspiro [2.5]octan-4-yl]-4,7-difluoro-indazole]"
20,≤ 1000,"O=S(=O)(c1ccn(S(=O)(=O)C2CC2)c1)n1nc(N2CCN(c3ncc(Cl)cc3F)CC23CC3)c2c(F)ccc(F)c21 [Compound 146, 3-[7-(5-chloro-3-fluoro-2-pyridyl)-4,7-diazaspiro [2.5]octan-4-yl]-1-(1-cyclopropylsulfonylpyrrol-3-yl) sulfonyl-4,7-difluoro-indazole]"
21,≤ 1000,"CC(C)S(=O)(=O)n1ccc(S(=O)(=O)n2nc(N3CCN(c4ncc(Cl)cc4F)CC34CC4)c3c(Cl)ccc(F)c32)c1 [Compound 147, 4-chloro-3-[7-(5-chloro-3-fluoro-2-pyridyl)-4,7-diazaspiro [2.5]octan-4-yl]-7-fluoro-1-(1-isopropylsulfonylpyrrol-3-yl) sulfonyl-indazole]"
22,≤ 1000,"CC(C)S(=O)(=O)n1ccc(S(=O)(=O)n2nc(N3CCN(c4ncc(Cl)cc4F)CC34CC4)c3c(F)ccc(F)c32)c1 [Compound 148, 3-[7-(5-chloro-3-fluoro-2-pyridyl)-4,7-diazaspiro [2.5]octan-4-yl]-4,7-difluoro-1-(1-isopropylsulfonylpyrrol-3-yl) sulfonyl-indazole]"
23,≤ 1000,"CC(C)S(=O)(=O)n1ccc(S(=O)(=O)n2nc(N3CCN(c4ncc(F)cn4)CC34CC4)c3c(F)ccc(F)c32)c1 [Compound 149, 4,7-difluoro-3-(7-(5-fluoropyrimidin-2-yl)-4,7-diazaspiro [2.5]octan-4-yl)-1-((1-(isopropylsulfonyl)-1H-pyrrol-3-yl)sulfonyl)-1H-indazole]"
24,≤ 1000,"CC(C)S(=O)(=O)n1ccc(S(=O)(=O)n2nc(N3CCN(c4ncc(Cl)cc4F)CC34CC4)c3c(Cl)cc(F)cc32)c1 [Compound 150, 4-chloro-3-(7-(5-chloro-3-fluoropyridin-2-yl)-4,7-diazaspiro [2.5]octan-4-yl)-6-fluoro-1-((1-(isopropylsulfonyl)-1H-pyrrol-3-yl)sulfonyl)-1H-indazole]"
25,≤ 1000,"CC(C)S(=O)(=O)n1ccc(S(=O)(=O)n2nc(N3CCN(c4ncc(Cl)cc4F)CC34CC4)c3c(Cl)cncc32)c1 [Compound 151, 4-chloro-3-[7-(5-chloro-3-fluoro-2-pyridyl)-4,7-diazaspiro [2.5]octan-4-yl]-1-(1-isopropylsulfonylpyrrol-3-yl) sulfonyl-pyrazolo [3,4-c]pyridine]"

row,Structure (SMILES),EC50 [nM]
1,"CC(F)(F)c1ccc(S(=O)(=O)n2nc(N3CCN(C(=O)F)CC34CC4)c3c(Cl)cccc32)cc1 [Compound 127, 4-(4-chloro-1-((4-(1,1-difluoroethyl)phenyl)sulfonyl)-1H-indazol-3-yl)-4,7-diazaspiro [2.5]octane-7-carbonyl fluoride]",≤ 1000
2,"CC(F)(F)C12CC(S(=O)(=O)n3nc(N4CCN(c5ncc(F)cn5)CC45CC5)c4c(Cl)cccc43)(C1)C2 [Compound 129, 4-chloro-1-((3-(1,1-difluoroethyl)bicycle [1.1.1]pentan-1-yl)sulfonyl)-3-(7-(5-fluoropyrimidin-2-yl)-4,7-diazaspiro [2.5]octan-4-yl)-1H-indazole]",≤ 1000
3,"O=S(=O)(n1nc(N2CCN(c3ncc(F)cn3)CC23CC3)c2c(Cl)cccc21)C12CC(C(F)(F)F)(C1)C2 [Compound 131, 4-chloro-3-[7-(5-fluoropyrimidin-2-yl)-4,7-diazaspiro [2.5]octan-4-yl]-1-[[3-(trifluoromethyl)-1-bicyclo [1.1.1]pentanyl]sulfonyl]indazole]",≥ 10000
4,"O=S(=O)(n1nc(N2CCN(c3ncc(F)cn3)CC23CC3)c2c(Cl)cccc21)C12CC(F)(C1)C2 [Compound 132, 4-chloro-1-[(3-fluoro-1-bicyclo [1.1.1]pentanyl)sulfonyl]-3-[7-(5-fluoropyrimidin-2-yl)-4,7-diazaspiro [2.5]octan-4-yl]indazole]",≥ 10000
